The subject of the first series is A549 cell line. Briefly: MTT cytotoxicity assay, A549. The series is classed as cell-based, human. The conditions noted are these: Homo sapiens; A549, 10 μΜ, 24 h; read-out: % Cell Toxicity 10 μΜ. As for the experimental part: The compounds of this study were also tested for their cytotoxic effects against the adenocarcinomic human alveolar basal epithelial cell line (A549) at different concentrations (100 μM, 75 μΜ, 50 μM and 10 μM).
(§1) Τhe MTT assay was used to evaluate cell viability or cell toxicity, depending on the cell line being tested. The experimental procedure was performed in a 96-well plate, where the cells were seeded and incubated (37 °C, 5% CO2) for 24 h to grow and cover the surface of the wells. Τhe seeding concentrations for the HaCaT and A549 cells were 30 × 10^4 cells/mL and 20 × 10^4 cells/mL, respectively. After the first incubation, the solutions of the compounds (with different concentrations) were added to the adherent cells and incubated for another 24 h. The compounds were tested in triplicate against the control (only cells in medium), the blank (only medium) and the positive/negative control (cells in 100 μM silibinin solution) triplicates. Silibinin, a flavonoid with known anticancer activities, was used as a negative control for the cell viability assay and as positive control for the cytotoxicity testing assay. The light-sensitive MTT-standard solution was prepared by dissolving 1 mg/mL MTT in PBS and then filtrated (in a […] filter (Millipore, Carrigtwohill, Ireland)). On the third day, an appropriate amount of ΜΤΤ solution was added to each well and the plate was incubated for 4 h. During the incubation time, the formazan crystals were formed, which were then dissolved with 100 μL DMSO per well. Finally, the plate was stirred for 30 min, and the optical density (OD) was measured in a plate reader spectrophotometer at 450 nm.
A general note: Formazan colour is commonly taken as a measure of viable cells.
On to `O=c1[nH]c(=S)[nH]c2nc(-c3ccc(Cl)cc3)cc(-c3ccccc3)c12` [Compound 2b, 7-(4-chlorophenyl)-5-phenyl-2-thioxo-2,3-dihydropyrido [2,3-d]pyrimidin-4(1H)-one], for which the cytotoxicity at 10 µM was found to be 47.9%.
Same read-out and setting: in the case of `O=C(/C=C/c1cccs1)c1ccc(Cl)cc1` [Compound 1d, (E)-1-(4-chlorophenyl)-3-(thiophen-2-yl)prop-2-en-1-one] it was 47.4%.

Staying with this series, now noted: Homo sapiens; A549, 50 μΜ, 24 h; read-out: % Cell Toxicity 50 μΜ.
For the compound `O=c1[nH]c(=S)[nH]c2nc(-c3ccc(Cl)cc3)cc(-c3ccccc3)c12` [Compound 2b, 7-(4-chlorophenyl)-5-phenyl-2-thioxo-2,3-dihydropyrido [2,3-d]pyrimidin-4(1H)-one], the cytotoxicity at 50 µM was found to be 83.5%.
Still for that read-out and setting: with `O=C(/C=C/c1cccs1)c1ccc(Cl)cc1` [Compound 1d, (E)-1-(4-chlorophenyl)-3-(thiophen-2-yl)prop-2-en-1-one] the figure was 83.2%; with `O=C(/C=C/c1ccc(Cl)cc1)c1ccccc1` [Compound 1e, (E)-3-(4-chlorophenyl)-1-phenylprop-2-en-1-one], 6.8%.

Staying with this series, now noted: Homo sapiens; A549, 100 μΜ, 24 h; read-out: % Cell Toxicity 100 μΜ.
Turning to `O=c1[nH]c(=S)[nH]c2nc(-c3ccc(Cl)cc3)cc(-c3ccccc3)c12` [Compound 2b, 7-(4-chlorophenyl)-5-phenyl-2-thioxo-2,3-dihydropyrido [2,3-d]pyrimidin-4(1H)-one], the cytotoxicity at 100 µM was determined as 100%.
The same measure, in the same setting: in the case of `O=C(/C=C/c1cccs1)c1ccc(Cl)cc1` [Compound 1d, (E)-1-(4-chlorophenyl)-3-(thiophen-2-yl)prop-2-en-1-one] it was 100%; in that of `O=C(/C=C/c1ccc(Cl)cc1)c1ccccc1` [Compound 1e, (E)-3-(4-chlorophenyl)-1-phenylprop-2-en-1-one], 36.8%.

Tested on in another series: not listed separately
Briefly: Reducing activity of the stable radical DPPH. The conditions noted are these: 20 min. As to the method:
All the synthesized compounds were studied for their ability to interact with the stable free 2,2-diphenyl-1-picrylhydrazyl radical (DPPH) at a concentration of 100 μM after 20 min and 60 min (Table 4). This assay is based on the reduction of DPPH by transferring one electron from the antioxidant.
In vitro study was performed as reported previously by our group. In this experiment, 20 μL of the tested compound (from the stock solution), 980 μL EtOH and 1 mL ethanolic solution of DPPH (100 μM) were added in a testing tube in a final volume of 2 mL. The free radical scavenging ability was evaluated by recording the change of absorbance at 517 nm, produced by the reduction of DPPH, after 20 and 60 min at room temperature.
With `O=c1[nH]c(=S)[nH]c2nc(-c3ccc(Cl)cc3)cc(-c3ccccc3)c12` [Compound 2b, 7-(4-chlorophenyl)-5-phenyl-2-thioxo-2,3-dihydropyrido [2,3-d]pyrimidin-4(1H)-one], the “RA % 100 μM 20 min” value is “no”.
Consider `O=C(/C=C/c1cccs1)c1ccc(Cl)cc1` [Compound 1d, (E)-1-(4-chlorophenyl)-3-(thiophen-2-yl)prop-2-en-1-one], for which the “RA % 100 μM 20 min” value is “no”.
Take `O=C(/C=C/c1ccc(Cl)cc1)c1ccccc1` [Compound 1e, (E)-3-(4-chlorophenyl)-1-phenylprop-2-en-1-one]: the “RA % 100 μM 20 min” value is “no”.

The series is the same for the next values; noted with them: 60 min.
As for `O=c1[nH]c(=S)[nH]c2nc(-c3ccc(Cl)cc3)cc(-c3ccccc3)c12` [Compound 2b, 7-(4-chlorophenyl)-5-phenyl-2-thioxo-2,3-dihydropyrido [2,3-d]pyrimidin-4(1H)-one], the “RA % 100 μM 60 min” value was found to be 1%.
The same measure, in the same setting: in the case of `O=C(/C=C/c1cccs1)c1ccc(Cl)cc1` [Compound 1d, (E)-1-(4-chlorophenyl)-3-(thiophen-2-yl)prop-2-en-1-one] it was “no”; in that of `O=C(/C=C/c1ccc(Cl)cc1)c1ccccc1` [Compound 1e, (E)-3-(4-chlorophenyl)-1-phenylprop-2-en-1-one], “no”.

Tested on in another series: not listed separately
Briefly: Inhibition of AAPH induced linoleic acid peroxidation.
Settings: not given
As to the method: For the lipid peroxidation study, 2,2′-Azobis(2-methylpropionamidine) dihydrochloride (AAPH) was used as the generator of peroxy radicals and sodium linoleate as the substrate that undergoes peroxidation. The conversion of linoleic acid to 13-hydroperoxy-linoleic acid was recorded at 234 nm. The change of absorbance reflects the possible antioxidant activity of the tested compounds, in comparison with the reference compound, Trolox.
In vitro study was performed as reported previously by our group. AAPH was used as a free radical generator of alkyl peroxyl radicals. For this experimental procedure, 10 μL of the tested compound (from the stock solution), 10 μL sodium linoleate (16 mM), 50 μL AAPH (40 mM) and 930 μL phosphate-buffered solution (pH 7.4) were added in a UV cuvette (1 mL), pre thermostated at 37 °C. The ability of the compounds to prevent the oxidation of linoleic acid from alkyl peroxyl radicals was evaluated by recording the change of absorbance at 234 nm, due to the conversion of linoleic acid to 13-hydroperoxy-linoleic acid. Trolox was used as the reference.
Regarding `O=c1[nH]c(=S)[nH]c2nc(-c3ccc(Cl)cc3)cc(-c3ccccc3)c12` [Compound 2b, 7-(4-chlorophenyl)-5-phenyl-2-thioxo-2,3-dihydropyrido [2,3-d]pyrimidin-4(1H)-one], the “AAPH % Inhibition 100 μM” value is on record as 62%.
The same measure, in the same setting: with `O=C(/C=C/c1cccs1)c1ccc(Cl)cc1` [Compound 1d, (E)-1-(4-chlorophenyl)-3-(thiophen-2-yl)prop-2-en-1-one] the figure was 8%; with `O=C(/C=C/c1ccc(Cl)cc1)c1ccccc1` [Compound 1e, (E)-3-(4-chlorophenyl)-1-phenylprop-2-en-1-one], 4%.

For the next series, the system named is HaCaT cell line. The experiment in a line: MTT cell viability assay, HaCaT. The series is classed as cell-based, human. The conditions noted are these: 100 μΜ, 24 h. As for the experimental part: (§2) The MTT (3-(4,5-dimethylthiazol-2-yl)-2,5-diphenyltetrazolium bromide) assay is a colorimetric method that is used for the evaluation of cell viability. MTT is converted into colored formazan crystals, indicating the activity of mitochondria and therefore the viability of the cells. Unlike dead cells, the metabolic processes of living cells are functional, meaning that the dehydrogenase enzymes are able to reduce the yellow MTT salt solution to purple crystals, at 37 °C. The intensity of the sample’s color, due to the amount of formazan crystals, is proportional to the number of the living cells in it. Additionally, the colored product is dissolved in various solubilizing agents, such as dimethyl sulfoxide (DMSO). The colored products can be quantitatively measured at 450 nm with a plate reader spectrophotometer. In this study, the human epidermal keratinocyte cell line (HaCaT) was treated with different concentrations (100 μM, 50 μM, 10 μM and 1 μM) of the tested compounds and then the viability rates at each effect were calculated.
as §1
`O=c1[nH]c(=S)[nH]c2nc(-c3ccc(Cl)cc3)cc(-c3ccccc3)c12` [Compound 2b, 7-(4-chlorophenyl)-5-phenyl-2-thioxo-2,3-dihydropyrido [2,3-d]pyrimidin-4(1H)-one]: the “% Cell Viability 100 μΜ” value is on record as “no”.
Same read-out and setting: with `O=C(/C=C/c1cccs1)c1ccc(Cl)cc1` [Compound 1d, (E)-1-(4-chlorophenyl)-3-(thiophen-2-yl)prop-2-en-1-one] the entry was “no”; with `O=C(/C=C/c1ccc(Cl)cc1)c1ccccc1` [Compound 1e, (E)-3-(4-chlorophenyl)-1-phenylprop-2-en-1-one], “no”.

Tested on in a further series: not listed separately
The experiment in a line: MTT cell viability assay, HaCaT. The series is classed as cell-based, human. The conditions noted are these: human, HaCaT cells (epidermal keratinocyte cell line), 10 μΜ. As to the method: as §2, §1
A word on the viability: it is the share of living cells, or the viability signal relative to a control. A lower viability goes with a greater loss of cells. `O=c1[nH]c(=S)[nH]c2nc(-c3ccc(Cl)cc3)cc(-c3ccccc3)c12` [Compound 2b, 7-(4-chlorophenyl)-5-phenyl-2-thioxo-2,3-dihydropyrido [2,3-d]pyrimidin-4(1H)-one] came in with a viability at 24 h, 10 μM of 75.1%.
The same measure, in the same setting: in the case of `O=C(/C=C/c1cccs1)c1ccc(Cl)cc1` [Compound 1d, (E)-1-(4-chlorophenyl)-3-(thiophen-2-yl)prop-2-en-1-one] it was 72.8%; in that of `O=C(/C=C/c1ccc(Cl)cc1)c1ccccc1` [Compound 1e, (E)-3-(4-chlorophenyl)-1-phenylprop-2-en-1-one], 100%.

Staying with this series, now noted: human, HaCaT cells (epidermal keratinocyte cell line), 50 μΜ.
In turn, `O=c1[nH]c(=S)[nH]c2nc(-c3ccc(Cl)cc3)cc(-c3ccccc3)c12` [Compound 2b, 7-(4-chlorophenyl)-5-phenyl-2-thioxo-2,3-dihydropyrido [2,3-d]pyrimidin-4(1H)-one] displayed a viability at 24 h, 50 μM of 26%.
The same measure, in the same setting: with `O=C(/C=C/c1cccs1)c1ccc(Cl)cc1` [Compound 1d, (E)-1-(4-chlorophenyl)-3-(thiophen-2-yl)prop-2-en-1-one] the figure was 53%; with `O=C(/C=C/c1ccc(Cl)cc1)c1ccccc1` [Compound 1e, (E)-3-(4-chlorophenyl)-1-phenylprop-2-en-1-one], 89.9%.

Tested on in a further series: not listed separately
Briefly: Experimental determination of lipophilicity as RM values (RP-TLC). The conditions noted are these: methanol/water 70/30 v/v, 24 °C, SD < 10%. In kind it is physicochemical. From the text:
Lipophilicity is an important physicochemical parameter of a drug candidate, linking solubility and membrane permeability with the ADMET (absorption, distribution, metabolism, elimination and toxicity) properties and the overall suitability of a molecule. Reversed-phase thin-layer chromatography was the method used to experimentally determine the lipophilic character of the synthesized compounds as RM values (Table 2). Lipophilicity was also theoretically calculated as clog P values using the Bio-Loom program of BioByte Corp (http://www.biobyte.com/, (accessed on 1 March 2023)). An attempt was made to correlate the experimental RM values with the theoretically calculated clog P values (Table 2). […] This disagreement could be attributed to several factors, e.g., different solvation, silanophilic interactions and hydrogen bonding.
Lipophilicity as RM values was determined through reversed-phase TLC (RP-TLC) on silica gel plates impregnated with 5% v/v liquid paraffin in light petroleum ether. Methanol/water mixture (70/30, v/v) was used as mobile phase. Closed chromatography tanks saturated with the mobile phase at 24 °C were used for the development of the plates while the spots were detected under UV light. For the determination of RM values, five individual measurements of Rf values were recorded, and the RM values were derived from the following Equation (1). (1) RM=log1/Rf−1
Take `O=c1[nH]c(=S)[nH]c2nc(-c3ccc(Cl)cc3)cc(-c3ccccc3)c12` [Compound 2b, 7-(4-chlorophenyl)-5-phenyl-2-thioxo-2,3-dihydropyrido [2,3-d]pyrimidin-4(1H)-one]: the RM was −0.87.
Same read-out and setting: in the case of `O=C(/C=C/c1cccs1)c1ccc(Cl)cc1` [Compound 1d, (E)-1-(4-chlorophenyl)-3-(thiophen-2-yl)prop-2-en-1-one] it was −0.46; in that of `O=C(/C=C/c1ccc(Cl)cc1)c1ccccc1` [Compound 1e, (E)-3-(4-chlorophenyl)-1-phenylprop-2-en-1-one], −0.50.

The values above are taken from article PMC10180197, “Novel Pyrimidine Derivatives as Antioxidant and Anticancer Agents: Design, Synthesis and Molecular Modeling Studies” (Molecules, 2023).
